From ChEMBL document CHEMBL1201861, “Genomics of Drug Sensitity in Cancer screening data, Wellcome Trust Sanger Institute”

Columns and labels:
Experiment in all cases: cells
[1] = system: NUGC-3; type: functional, cell-based, Homo sapiens; settings: Homo sapiens, NUGC-3;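 further: growth inhibition of human NUGC-3 cells, read out with a cell viability assay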
Description: SANGER: Inhibition of human NUGC-3 cell growth in a cell viability assay.

[2] = system: SCC-15; type: functional, cell-based, Homo sapiens; settings: Homo sapiens, SCC-15;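 further: growth inhibition of SCC-15 cells, read out with a cell viability assay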
Description: SANGER: Inhibition of human SCC-15 cell growth in a cell viability assay.

[3] = system: HT; type: functional, cell-based; settings: Homo sapiens
Description: SANGER: Inhibition of human HT cell growth in a cell viability assay.

[4] = system: SW684; type: functional, cell-based, Homo sapiens; settings: Homo sapiens, SW684;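 further: growth inhibition of human SW684 cells, measured by a cell viability assay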
Description: SANGER: Inhibition of human SW684 cell growth in a cell viability assay.

[5] = system: MZ2-MEL; type: functional, cell-based, Homo sapiens; settings: Homo sapiens, MZ2-MEL;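 further: growth inhibition of MZ2-MEL cells read out with a cell viability assay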
Description: SANGER: Inhibition of human MZ2-MEL cell growth in a cell viability assay.

[6] = system: TE-6; type: functional, cell-based, Homo sapiens; settings: Homo sapiens, TE-6;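 further: growth inhibition of TE-6 cells, read out with a cell viability assay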
Description: SANGER: Inhibition of human TE-6 cell growth in a cell viability assay.

[7] = system: NOMO-1; type: functional, cell-based; settings: Homo sapiens;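 further: growth inhibition of human NOMO-1 cells measured by a cell viability assay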
Description: SANGER: Inhibition of human NOMO-1 cell growth in a cell viability assay.

[8] = system: NCI-H2170; type: functional, cell-based, Homo sapiens; settings: Homo sapiens, NCI-H2170;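 further: cell viability assay measuring growth inhibition of human NCI-H2170 cancer cells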
Description: SANGER: Inhibition of human NCI-H2170 cell growth in a cell viability assay.

[9] = system: YAPC; type: functional, cell-based, Homo sapiens; settings: Homo sapiens, YAPC;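 further: growth inhibition of YAPC cells, measured with a cell viability assay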
Description: SANGER: Inhibition of human YAPC cell growth in a cell viability assay.

[10] = system: RPMI-8866; type: functional, cell-based; settings: Homo sapiens
Description: SANGER: Inhibition of human RPMI-8866 cell growth in a cell viability assay.

[11] = system: MS-1; type: functional, cell-based; settings: Homo sapiens;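 further: growth inhibition of MS-1 cells, read out by cell viability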
Description: SANGER: Inhibition of human MS-1 cell growth in a cell viability assay.

[12] = system: LXF-289 cell line; type: functional, cell-based, Homo sapiens; settings: Homo sapiens, LXF-289
Description: SANGER: Inhibition of human LXF-289 cell growth in a cell viability assay.

[13] = system: NCI-H650; type: functional, cell-based, Homo sapiens; settings: Homo sapiens, NCI-H650;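 further: growth inhibition of NCI-H650 cells, read out by a viability assay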
Description: SANGER: Inhibition of human NCI-H650 cell growth in a cell viability assay.

[14] = system: 769-P; type: functional, cell-based, Homo sapiens; settings: Homo sapiens, 769-P
Description: SANGER: Inhibition of human 769-P cell growth in a cell viability assay.

[15] = system: MOLT-16; type: functional, cell-based; settings: Homo sapiens;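 further: growth inhibition of human MOLT-16 cells, read out with a cell viability assay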
Description: SANGER: Inhibition of human MOLT-16 cell growth in a cell viability assay.

[16] = system: FTC-133; type: functional, cell-based, Homo sapiens; settings: Homo sapiens, FTC-133
[17] = system: OVCAR-5; type: functional, cell-based, Homo sapiens; settings: Homo sapiens, OVCAR-5;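 further: growth inhibition of human OVCAR-5 cells, read out with a cell viability assay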
Description: SANGER: Inhibition of human OVCAR-5 cell growth in a cell viability assay.

[18] = system: HT-144; type: functional, cell-based, Homo sapiens; settings: Homo sapiens, HT-144
Description: SANGER: Inhibition of human HT-144 cell growth in a cell viability assay.

[19] = system: HPAF-II; type: functional, cell-based, Homo sapiens; settings: Homo sapiens, HPAF-II;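 further: growth inhibition of HPAF-II cells, read out with a cell viability assay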
Description: SANGER: Inhibition of human HPAF-II cell growth in a cell viability assay.

[20] = system: MPP-89; type: functional, cell-based, Homo sapiens; settings: Homo sapiens, MPP-89;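 further: growth inhibition of human MPP-89 cells, read out with a cell viability assay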
Description: SANGER: Inhibition of human MPP-89 cell growth in a cell viability assay.

[21] = system: HSC-2; type: functional, cell-based, Homo sapiens; settings: Homo sapiens, HSC-2;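 further: growth inhibition of human HSC-2 cells, read out by a cell viability assay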
Description: SANGER: Inhibition of human HSC-2 cell growth in a cell viability assay.

[22] = system: SK-UT-1; type: functional, cell-based, Homo sapiens; settings: Homo sapiens, SK-UT-1;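 further: growth inhibition of SK-UT-1 cells, measured by a cell viability assay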
Description: SANGER: Inhibition of human SK-UT-1 cell growth in a cell viability assay.

[23] = system: CAL-54; type: functional, cell-based, Homo sapiens; settings: Homo sapiens, CAL-54;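 further: growth inhibition of CAL-54 cells, read out by a viability measurement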
Description: SANGER: Inhibition of human CAL-54 cell growth in a cell viability assay.

[24] = system: SCH; type: functional, cell-based, Homo sapiens; settings: Homo sapiens, SCH;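 further: growth inhibition of human SCH cells, read out in a cell viability assay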
Description: SANGER: Inhibition of human SCH cell growth in a cell viability assay.

[25] = system: J-RT3-T3-5; type: functional, cell-based; settings: Homo sapiens;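 further: cell viability assay measuring growth inhibition of human J-RT3-T3-5 cells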
Description: SANGER: Inhibition of human J-RT3-T3-5 cell growth in a cell viability assay.

[26] = system: NCI-H1092; type: functional, cell-based; settings: Homo sapiens;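 further: cell growth inhibition measured with a cell viability assay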
Description: SANGER: Inhibition of human NCI-H1092 cell growth in a cell viability assay.

[27] = system: BT-20; type: functional, cell-based, Homo sapiens; settings: Homo sapiens, BT-20;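 further: cell viability assay measuring suppression of growth in human BT-20 cells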
Description: SANGER: Inhibition of human BT-20 cell growth in a cell viability assay.

[28] = system: JEG-3; type: functional, cell-based, Homo sapiens; settings: Homo sapiens, JEG-3;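 further: growth inhibition of human JEG-3 cells, read out with a cell viability assay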
Description: SANGER: Inhibition of human JEG-3 cell growth in a cell viability assay.

[29] = system: MSTO-211H; type: functional, cell-based, Homo sapiens; settings: Homo sapiens, MSTO-211H
Description: SANGER: Inhibition of human MSTO-211H cell growth in a cell viability assay.

[30] = system: U-251; type: functional, cell-based, Homo sapiens; settings: Homo sapiens, U-251;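 further: growth inhibition of human U-251 cells, read out through a cell viability assay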
Description: SANGER: Inhibition of human U251 cell growth in a cell viability assay.

[31] = system: BPH-1; type: functional, cell-based, Homo sapiens; settings: Homo sapiens, BPH-1;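 further: cell viability assay measuring growth inhibition of human BPH-1 cells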
Description: SANGER: Inhibition of human BPH-1 cell growth in a cell viability assay.

[32] = system: Calu-6; type: functional, cell-based, Homo sapiens; settings: Homo sapiens, Calu-6;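 further: growth of human Calu-6 cells, read out by a cell viability assay, IC50 marking inhibition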
Description: SANGER: Inhibition of human Calu-6 cell growth in a cell viability assay.

[33] = system: A253 cell line; type: functional, cell-based, Homo sapiens; settings: Homo sapiens, A253;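 further: growth inhibition of A253 cells, read out with a cell viability assay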
Description: SANGER: Inhibition of human A253 cell growth in a cell viability assay.

[34] = system: SW1088; type: functional, cell-based, Homo sapiens; settings: Homo sapiens, SW1088;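 further: growth inhibition of human SW1088 cells, read out by a cell viability assay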
Description: SANGER: Inhibition of human SW1088 cell growth in a cell viability assay.

[35] = system: BXPC-3; type: functional, cell-based, Homo sapiens; settings: Homo sapiens, BXPC-3;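 further: growth inhibition of human BxPC-3 cells, read out by a cell viability assay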
Description: SANGER: Inhibition of human BxPC-3 cell growth in a cell viability assay.

[36] = system: LCLC-97TM1; type: functional, cell-based, Homo sapiens; settings: Homo sapiens, LCLC-97TM1;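 further: cell viability assay measuring growth inhibition of human LCLC-97TM1 cells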
Description: SANGER: Inhibition of human LCLC-97TM1 cell growth in a cell viability assay.

[37] = system: ME-180; type: functional, cell-based; settings: Homo sapiens;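 further: cell viability assay measuring growth inhibition of ME-180 cells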
Description: SANGER: Inhibition of human ME-180 cell growth in a cell viability assay.

[38] = system: CP50-MEL-B; type: functional, cell-based, Homo sapiens; settings: Homo sapiens, CP50-MEL-B;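 further: growth inhibition of the human cell line, measured with a cell viability read-out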
Description: SANGER: Inhibition of human CP50-MEL-B cell growth in a cell viability assay.

[39] = system: VMRC-RCZ; type: functional, cell-based; settings: Homo sapiens;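 further: growth inhibition measured with a cell viability assay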
Description: SANGER: Inhibition of human VMRC-RCZ cell growth in a cell viability assay.

[40] = system: SAOS-2; type: functional, cell-based, Homo sapiens; settings: Homo sapiens, SAOS-2;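 further: growth inhibition of human Saos-2 cells determined by a cell viability assay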
Description: SANGER: Inhibition of human Saos-2 cell growth in a cell viability assay.

[41] = system: NCI-H1838; type: functional, cell-based, Homo sapiens; settings: Homo sapiens, NCI-H1838;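 further: growth inhibition of NCI-H1838 cells, determined with a cell viability readout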
Description: SANGER: Inhibition of human NCI-H1838 cell growth in a cell viability assay.

[42] = system: KYSE-180; type: functional, cell-based, Homo sapiens; settings: Homo sapiens, KYSE-180;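 further: growth inhibition of KYSE-180 cells, read out with a cell viability assay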
Description: SANGER: Inhibition of human KYSE-180 cell growth in a cell viability assay.

[43] = system: SF-539; type: functional, cell-based, Homo sapiens; settings: Homo sapiens, SF-539;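 further: Read-out is a cell viability assay, with IC50 reflecting inhibition of cell growth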
Description: SANGER: Inhibition of human SF539 cell growth in a cell viability assay.

[44] = system: TCC-SUP; type: functional, cell-based, Homo sapiens; settings: Homo sapiens, TCC-SUP;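 further: growth inhibition of TCC-SUP cells, read out with a cell viability assay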
Description: SANGER: Inhibition of human TCCSUP cell growth in a cell viability assay.

[45] = system: TE-5; type: functional, cell-based, Homo sapiens; settings: Homo sapiens, TE-5;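 further: inhibition of cell growth, read out by a cell viability assay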
Description: SANGER: Inhibition of human TE-5 cell growth in a cell viability assay.

[46] = system: TGBC1TKB; type: functional, cell-based, Homo sapiens; settings: Homo sapiens, TGBC1TKB;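 further: growth inhibition of TGBC1TKB cells, read out by a cell viability assay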
Description: SANGER: Inhibition of human TGBC1TKB cell growth in a cell viability assay.

[47] = system: MFE-280; type: functional, cell-based, Homo sapiens; settings: Homo sapiens, MFE-280;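 further: growth inhibition of MFE-280 cells, determined with a cell viability readout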
Description: SANGER: Inhibition of human MFE-280 cell growth in a cell viability assay.

[48] = system: CAPAN-1; type: functional, cell-based, Homo sapiens; settings: Homo sapiens, CAPAN-1;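 further: growth suppression of CAPAN-1 cells, read out by a cell viability assay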
Description: SANGER: Inhibition of human CAPAN-1 cell growth in a cell viability assay.

[49] = system: NCI-H1355; type: functional, cell-based, Homo sapiens; settings: Homo sapiens, NCI-H1355;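 further: growth inhibition of human NCI-H1355 cells, read out by a cell viability assay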
Description: SANGER: Inhibition of human NCI-H1355 cell growth in a cell viability assay.

[50] = system: MHH-NB-11; type: functional, cell-based, Homo sapiens; settings: Homo sapiens, MHH-NB-11;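 further: growth inhibition of human MHH-NB-11 cells, read out by a cell viability assay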
Description: SANGER: Inhibition of human MHH-NB-11 cell growth in a cell viability assay.

[51] = system: NKM-1; type: functional, cell-based; settings: Homo sapiens;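 further: growth inhibition of NKM-1 cells, read out with a cell viability assay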
Description: SANGER: Inhibition of human NKM-1 cell growth in a cell viability assay.

Measured: IC50

CCOc1nc(NC(=O)Cc2cc(OC)ccc2OC)cc(N)c1C#N
> 10 µM: all assays above

CC(=O)O[C@@H]1[C@@H](OC(C)=O)[C@@H](O)[C@H](Oc2c(-c3ccc(O)cc3)oc3cc(O)cc(O)c3c2=O)O[C@H]1C
> 10 µM: all assays above
